Laboratory results as given in US6890727B2, “Diagnostic assay for Alzheimer's disease: assessment of Aβ abnormalities” (The General Hospital Corporation, priority 1994, dated 2005).

How the values were obtained:
[1] = 65Zn2+ binding to immobilized peptide (dot-blot, Scatchard competition analysis); conditions: unlabeled metal ions 50 μM total
Description: ^65Zn^2+ Binding Studies—Dissolved peptides (1.2 nMol, unless other wise stated) were dot-blotted onto polyvinylidene difluoride membrane (0.2-μm pore size; Pierce Chemical Co.), washed twice with chelating buffer (200 μl×100 mM NaCl, 20 mM Tris-HCl, 1 mM EDTA, pH 7.4), then five times with blocking buffer (200 μl×100 mM NaCl, 20 mM Tris-HCl, 1 mM MnCl2, pH 7.4), and then incubated (60 min, 20° C.) with ^65Zn (unless otherwise stated 130,000 cpm, […] ^65ZnCl2 in 200 μl of blocking buffer±competing metal ion chloride). The dot-blot was then washed with blocking buffer (5×200 μl), the dot excised, placed in a test tube, and assayed by γ-counting (11% efficiency). The equilibration volume for stoichiometry estimates was regarded as 6×200 μl. The 214 nm UV absorbance of the unbound flow-through was assayed to determine the total amount of peptide remaining bound onto the membrane. […] To alter the pH, the ^65Zn incubation was carried out in the presence of 100 mM buffer: MOPS (pH 6.5-7.0), MES (pH 5.0-6.0), acetate (pH 3.5-4.5). The dot-blot apparatus was washed with detergent and EDTA (50 mM) then rinsed and siliconized between use.
Aliquots of Aβ were incubated (60 min) with ^65Zn^2+ in the presence of varying concentrations of unlabeled Zn^2+ (0.01-50 μM total). Values shown are means±S.D., n≧3. […] (FIG. 1b) depicts specificity of the Zn^2+ binding site for various metals. Aβ was incubated (60 min) with ^65 Zn^2+ (157 nM, 138,000 cpm) and competing unlabeled metal ions (50 μM total). […] Percent binding of total counts ^65Zn^2+/min added is corrected for the amounts (in nanomoles) of peptides adhering to the membrane. […] 157 nM ^65Zn (138,000 cpm) is used in this experiment to probe immobilized peptide (1.6 nmol).

[2] = tested on: trypsin; experiment: Tryptic digestion of Aβ after incubation with Zn2+; type: biochemical; conditions: Zn^2+ 200 μM
Description: (§1) Tryptic Digestion of Aβ-Aβ1-40 (13.9 μg) was incubated with Zn^2+ ([…] in blocking buffer, 1 h, 37° C.) and then digested with trypsin (12 ng, 3 h, 37° C.). The reaction was stopped by adding SDS sample buffer containing phenylmethylsulfonyl fluoride (1 mM), boiling the samples (5 min), and applying the samples to Tris/Tricine gel electrophoresis and transfer. The blot was washed with EDTA, Coomassie-stained, incubated with ^65Zn^2+, individual bands were excised, assayed for ^65Zn^2+ binding, and N-terminal sequenced to confirm the identity of the digestion products. The effects of Zn^2+ (up to 100 μM in TBS) on the activity of trypsin, itself, were assayed by assay of Z-Arg-amido-4-methylcoumarin (Sigma) fluorescent cleavage product and determined to be negligible.
(FIG. 4a) depicts a blot of tryptic digests of Aβ (13.9 μg) after incubation with increasing concentrations of zinc (lane labels, in micromolar), stained by Coomassie Blue. […] The migration of the low molecular size markers (STD) are indicated (in kilodaltons) on the right. (FIG. 4b) depicts ^65Zn^2+ binding to Aβ tryptic digestion products. The blot in 4a was incubated with ^65Zn^2+, the visible bands excised, and the bound counts for each band determined.

[3] = tested on: trypsin; experiment: Trypsin activity, Z-Arg-amido-4-methylcoumarin fluorescent cleavage product; type: biochemical; conditions: Zn^2+ up to 100 μM in TBS
Description: as §1

[4] = target: T1, Aβ (Homo sapiens, UniProt P05067); experiment: SDS Tris/Tricine gel electrophoresis of Aβ incubated with Zn2+; conditions: Zn^2+ 200 μM, 1-24 h, 20° C.
T1 construct: purchased Sigma; Bachem (results also replicated with peptide from the Keck Laboratory, Yale); host or cells: chemical synthesis
T1 sequence (P05067 672-711): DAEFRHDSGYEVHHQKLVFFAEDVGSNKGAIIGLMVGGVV
Description: To further test whether zinc induces irreversible precipitation of Aβ in the absence of kaolin, Aβ incubated with Zn^2+ (200 μM, 1-24 h, 20° C.) was subjected to SDS Tris/Tricine gel electrophoresis.

[5] = target: T2, human Aβ1-40 (Homo sapiens, UniProt P05067); experiment: Human Aβ1-40 aggregation (0.2μ filtration) after incubation with various metal ions; type: physicochemical; conditions: metal ions 3 μM, equimolar basis, peptide 1.6 μM
T2 construct: made in house; host or cells: chemical synthesis (solid-phase Fmoc)
T2 sequence (P05067 672-711): as above
Text: The atomic number of the metal species is indicated. […] Data points are in duplicate.

For `[Zn+2]` [Zn^2+, zinc], the “competition of unlabeled metal ion with ^65Zn^2+ for Aβ” value [1] was “capable of competing off the label”, the “inhibition of Aβ hydrolysis by trypsin” value [2] was “complete inhibition” and the “effects on the activity of trypsin itself” value [3] was “negligible”. For the same compound, the “covalent or SDS-resistant polymerization of Aβ” value [4] was “does not induce covalent or SDS-resistant polymerization” and the “induction of aggregation of human Aβ1-40 among metal ions tested” value [5] was “induce significant aggregation”.
